Patent US11471442B2, “Administration of gut-selective JAK3 inhibitor” (THERAVANCE BIOPHARMA R&D IP, LLC, priority 2020, dated 2022)

Assay: Phase 1 single ascending dose (SAD, Part A) safety and tolerability in healthy subjects
Assay type: in vivo, human
Details: for Most frequent TEAEs: Apthous ulcer / Most frequent TEAEs: Back pain / Most frequent TEAEs: Diarrhea / Most frequent TEAEs: Headache / Most frequent TEAEs: Pain in extremity / Subjects with TEAEs: Any TEAE / Subjects with TEAEs: Moderate or severe TEAE / Subjects with TEAEs: Seriou TEAE / Subjects with TEAEs: TEAE leading to discontinuation / Total number of TEAEs: SAD, n = 6
Excerpt: This clinical study was the first in human study of a compound of formula (I). The purpose of this study was to assess the safety, tolerability and pharmacokinetics (PK) of the compound of formula (I) through single ascending dose administration (Part A) and multiple dose administrations (Part B) in healthy subjects.
The number and severity of treatment emergent adverse events (TEAE5) following single (Part A) or multiple (Parts B) oral doses of the compound of formula (I) and matching placebo, and changes in safety laboratory assessments, vital signs, and ECGs.
32 healthy, adult male and female subjects were enrolled in Part A. Four cohorts (A1 to A4) of 8 healthy subjects (6 active and 2 placebo) were evaluated.
In each cohort, healthy subjects meeting eligibility criteria were sequentially randomized in a 3:1 ratio to receive either the compound of formula (I) or matching placebo. Study drug was administered orally as a single dose on the morning of Day 1 following an overnight fast of at least 9.5 hours. Subjects were dosed in an upright (i.e., seated or standing) position and remained upright for 5 minutes following dosing prior to performing study procedures which require a posture change. Subjects were to remain fasted, except water, until after the 4-hour post-dose assessments were completed and the 4-hour post dose PK sample was collected. PK sampling for the compound of formula (I) in plasma and urine were taken Day 1 pre-dose and for 72 hours post-dose.
Safety was determined by evaluating physical examinations, vital signs, safety 12-lead electrocardiograms (ECGs) monitoring, clinical laboratory tests, and adverse events (AEs). For procedures scheduled to be performed at common times, collection of PK samples was collected as close as possible to the designated time. The cardiodynamic recordings via ECG extractions from the Holter monitor were conducted as close as possible prior to the corresponding PK sampling. Vital signs, followed by safety ECGs, were be taken before the PK sampling (or before the cardiodynamic sampling if scheduled at the same time), unless PK samples were late as a result in which case vital signs were taken following the PK sampling.
Safety analyses were performed using the Safety analysis set. Safety variables include vital signs, adverse events, clinical laboratory results (hematology, chemistry, coagulation, and urinalysis), and ECG parameters, such as Friderica's corrected QT interval (QTcF), PR interval, QT interval, QRS interval, and heart rate, from standard safety digital ECGs. Vital signs were summarized in terms of observed values and changes from baseline.

Q: Which “serious AEs” value (SAD cohorts) does the source give for `CN(C)C/C=C/C(=O)N1CC(COc2cc(-c3ccc(O)cc3)cc3[nH]ncc23)C1` [compound of formula (I)] here?
A: No serious AEs

Q: And the “severity of reported treatment-emergent AEs” value (SAD cohorts)?
A: mild

Q: What about the “AEs considered related to study drug (diarrhea, abdominal discomfort, and vomiting)” value (SAD cohorts, 2000 mg) of the same molecule?
A: Three

Q: What about the “changes from predose baseline in laboratory assessments (lipid, coagulation, hematology), vital signs or ECGs” value (SAD cohorts, any time point postdose) of the same molecule?
A: No clinically significant changes

Q: And the “Most frequent TEAEs: Apthous ulcer” value (single oral dose 100 mg)?
A: 1 (17)

Q: What about the “Most frequent TEAEs: Back pain” value (single oral dose 100 mg) of the same molecule?
A: 1 (17)

Q: What about the “Most frequent TEAEs: Diarrhea” value (single oral dose 100 mg) of the same molecule?
A: 0

Q: And the “Most frequent TEAEs: Headache” value (single oral dose 100 mg)?
A: 1 (17)

Q: What about the “Most frequent TEAEs: Pain in extremity” value (single oral dose 100 mg) of the same molecule?
A: 3 (50)

Q: And the “Subjects with TEAEs: Any TEAE” value (single oral dose 100 mg)?
A: 4 (67)

Q: And the “Subjects with TEAEs: Moderate or severe TEAE” value (single oral dose 100 mg)?
A: 0

Q: And the “Subjects with TEAEs: Seriou TEAE” value (single oral dose 100 mg)?
A: 0

Q: And the “Subjects with TEAEs: TEAE leading to discontinuation” value (“Subjects with TEAEs: TEAE leading” below) (single oral dose 100 mg)?
A: 0

Q: What about the “Total number of TEAEs” value (single oral dose 100 mg) of the same molecule?
A: 8

Q: And the “Most frequent TEAEs: Apthous ulcer” value (single oral dose 300 mg)?
A: 0

Q: And the “Most frequent TEAEs: Back pain” value (single oral dose 300 mg)?
A: 0

Q: What about the “Most frequent TEAEs: Diarrhea” value (single oral dose 300 mg) of the same molecule?
A: 0

Q: What about the “Most frequent TEAEs: Headache” value (single oral dose 300 mg) of the same molecule?
A: 0

Q: What about the “Most frequent TEAEs: Pain in extremity” value (single oral dose 300 mg) of the same molecule?
A: 1 (17)

Q: What about the “Subjects with TEAEs: Any TEAE” value (single oral dose 300 mg) of the same molecule?
A: 2 (33)

Q: What about the “Subjects with TEAEs: Moderate or severe TEAE” value (single oral dose 300 mg) of the same molecule?
A: 0

Q: What about the “Subjects with TEAEs: Seriou TEAE” value (single oral dose 300 mg) of the same molecule?
A: 0

Q: What about the “Subjects with TEAEs: TEAE leading” value (single oral dose 300 mg) of the same molecule?
A: 0

Q: What about the “Total number of TEAEs” value (single oral dose 300 mg) of the same molecule?
A: 2

Q: And the “Most frequent TEAEs: Apthous ulcer” value (single oral dose 1000 mg)?
A: 0

Q: And the “Most frequent TEAEs: Back pain” value (single oral dose 1000 mg)?
A: 1 (17)

Q: And the “Most frequent TEAEs: Diarrhea” value (single oral dose 1000 mg)?
A: 1 (17)

Q: And the “Most frequent TEAEs: Headache” value (single oral dose 1000 mg)?
A: 0

Q: What about the “Most frequent TEAEs: Pain in extremity” value (single oral dose 1000 mg) of the same molecule?
A: 0

Q: What about the “Subjects with TEAEs: Any TEAE” value (single oral dose 1000 mg) of the same molecule?
A: 2 (33)

Q: What about the “Subjects with TEAEs: Moderate or severe TEAE” value (single oral dose 1000 mg) of the same molecule?
A: 0

Q: What about the “Subjects with TEAEs: Seriou TEAE” value (single oral dose 1000 mg) of the same molecule?
A: 0

Q: And the “Subjects with TEAEs: TEAE leading” value (single oral dose 1000 mg)?
A: 0

Q: What about the “Total number of TEAEs” value (single oral dose 1000 mg) of the same molecule?
A: 6

Q: What about the “Most frequent TEAEs: Apthous ulcer” value (single oral dose 2000 mg) of the same molecule?
A: 1 (17)

Q: And the “Most frequent TEAEs: Back pain” value (single oral dose 2000 mg)?
A: 0

Q: And the “Most frequent TEAEs: Diarrhea” value (single oral dose 2000 mg)?
A: 1 (17)

Q: What about the “Most frequent TEAEs: Headache” value (single oral dose 2000 mg) of the same molecule?
A: 1 (17)

Q: What about the “Most frequent TEAEs: Pain in extremity” value (single oral dose 2000 mg) of the same molecule?
A: 0

Q: What about the “Subjects with TEAEs: Any TEAE” value (single oral dose 2000 mg) of the same molecule?
A: 3 (50)

Q: What about the “Subjects with TEAEs: Moderate or severe TEAE” value (single oral dose 2000 mg) of the same molecule?
A: 0

Q: And the “Subjects with TEAEs: Seriou TEAE” value (single oral dose 2000 mg)?
A: 0

Q: What about the “Subjects with TEAEs: TEAE leading” value (single oral dose 2000 mg) of the same molecule?
A: 0

Q: What about the “Total number of TEAEs” value (single oral dose 2000 mg) of the same molecule?
A: 6

Q: And the tolerability (single dose up to 2000 mg)?
A: generally well-tolerated
